Read-outs that look alike come from different tables or passages of the source.
What was measured:
HCV GT1a(H77) replicon = assay: HCV replicon luciferase reporter assay, genotype 1a; format: cell-based, HCV genotype 1a; details: Hepatitis C virus, 72 h, HUH-7 cells, Renilla luciferase, 3 days incubation
From the text: A stable HCV GT1a(H77) replicon luciferase reporter cell line (Yanagi M, Purcell RH, Emerson S U, et al. Transcripts from a single full-length cDNA clone of hepatitis C virus are infectious when directly transfected into the liver of a chimpanzee. Proc Natl Acad Sci USA 1997; 94(16):8738-8743) was generated as described previously for the genotype 1b(Con1) replicon luciferase cell line. The replicon construct was modified by introducing mutations into the genes encoding the NS3 helicase domain (proline replaced by leucine at position 1496) and NS5A (serine to isoleucine at position 2204) to improve replication in cell culture.
(§1) HCV replicon luciferase assays were developed to monitor the inhibitory effects of compounds described in the disclosure on HCV genotypes 1a and 1b viral replication. HUH-7 cells, constitutively expressing the HCV replicon, were grown in Dulbecco's Modified Eagle Media (DMEM) (Gibco-BRL) containing 10% Fetal calf serum (FCS) (Sigma) and 1 mg/mL G418 (Gibco-BRL). Compounds were serially diluted 3 folds in DMSO for a twenty-point titration and subsequently transferred to sterile 384-well tissue-culture treated plates (Corning cat #3571). The plates were then seeded with 50 μL of cells at a density of 3.0×10^3 cells/well in DMEM containing 4% FCS (final DMSO concentration at 0.5%). After 3 days incubation at 37° C., cells were analyzed for Renilla Luciferase activity using the EnduRen as substrate (Promega cat #E6485). The EnduRen substrate was diluted in DMEM and then added to the plates to a final concentration of 7.5 μM. The plates were incubated for 2 hrs at 37° C. and then read immediately for 30 seconds with Viewlux Imager (PerkinElmer) using a luminescence program. To assess cytotoxicity of compounds, CC50 values were generated by multiplexing the EnduRen-containing plates with Cell Titer-Blue (Promega, cat #G8082). Cell-Titer Blue (3 μL) was added to each well and incubated for 8 hrs at 37° C. The fluorescence signal from each well was read, with an excitation wavelength at 525/10 nm and an emission wavelength of 598/10 nm, using the Viewlux Imager.
(§2) The EC50 values for compounds were calculated by using a four-parameter logistic equation: y=A+[…])/(1+((C/x)^D))), where A and B denotes minimal and maximal % inhibition, respectively, C is the EC50, D is the hill slope and x represents compound concentration.

HCV GT1b(Con1) replicon = assay: HCV replicon luciferase reporter assay, genotype 1b; format: cell-based, HCV genotype 1b; details: Hepatitis C virus, 72 h, HUH-7 cells, Renilla luciferase, 3 days incubation
From the text: An HCV GT1b(Con1) replicon cell system was established as described by Lohmann V, Korner F, Koch J, Herian U, Theilmann L, Bartenschlager R., Science 285(5424):110-3 (1999) and modified to introduce a luciferase reporter (Krieger N, Lohmann V, and Bartenschlager R, J. Virol. 75(10):4614-4624 (2001)). cDNA encoding a humanized form of the Renilla luciferase gene, and a linker sequence fused directly to the 3′-end of the luciferase gene were introduced into the replicon construct using an Asc1 restriction site located in core, directly upstream of the neomycin marker gene. The adaptive mutation at position 1179 (serine to isoleucine) was also introduced (Blight K J, Kolykhalov, A A, Rice, C M, Science 290(5498):1972-1974). A stable cell line constitutively expressing this HCV replicon construct was generated by first linearizing plasmid DNAs with ScaI. RNA transcripts were synthesized in vitro using the T7 MegaScript transcription kit (Ambion, Austin, Tex.) according to manufacturer's directions. In vitro transcripts of the cDNA were transfected into the human hepatoma cell line, HUH-7. […] Resulting cell lines were characterized for positive and negative strand RNA production and protein production over time.
as §1, §2

SMILES | EC50 (HCV GT1a(H77) replicon; read-out: LE_1a (EC50, range)) [nM] | EC50 (HCV GT1b(Con1) replicon; read-out: LE_1b (EC50, range)) [nM] | EC50 (HCV GT1a(H77) replicon; read-out: LE_1a (EC50)) [nM] | EC50 (HCV GT1b(Con1) replicon; read-out: LE_1b (EC50)) [nM]
CC(C)Oc1ccc(-c2cc(O[C@@H]3C[C@H]4C(=O)N[C@]5(C(=O)NS(=O)(=O)C6(C)CC6)C[C@H]5/C=C\CC[C@H](C)C[C@@H](C)[C@H](NC(=O)OC(C)(C)C(F)(F)F)C(=O)N4C3)cc(-n3cccn3)n2)cc1 [Compound 1014, 1,1,1-trifluoro-2-methylpropan-2-yl ((2R,6S,7R,9S,13aS,14aR,16aS,Z)-2-((2-(4-isopropoxyphenyl)-6-(1H-pyrazol-1-yl)pyridin-4-yl)oxy)-7,9-dimethyl-14a-(((1-methylcyclopropyl)sulfonyl)carbamoyl)-5,16-dioxo-1,2,3,5,6,7,8,9,10,11,13a,14,14a,15,16,16a-hexadecahydrocyclopropa[e]pyrrolo[1,2-a][1,4]diazacyclopentadecin-6-yl)carbamate] | 35 to 359 | 5.01 to 35 | – | –
Cc1cc(O[C@@H]2C[C@H]3C(=O)N[C@]4(C(=O)NS(=O)(=O)C5(C)CC5)C[C@H]4/C=C\CC[C@@H](C)C[C@@H](C)[C@H](NC(=O)OC(C)(C)C(F)(F)F)C(=O)N3C2)cc(-c2cncs2)n1 [Compound 1015, 1,1,1-trifluoro-2-methylpropan-2-yl ((2R,6S,7R,9R,13aS,14aR,16aS,Z)-7,9-dimethyl-2-((2-methyl-6-(thiazol-5-yl)pyridin-4-yl)oxy)-14a-(((1-methylcyclopropyl)sulfonyl)carbamoyl)-5,16-dioxo-1,2,3,5,6,7,8,9,10,11,13a,14,14a,15,16,16a-hexadecahydrocyclopropa[e]pyrrolo[1,2-a][1,4]diazacyclopentadecin-6-yl)carbamate] | 5.01 to 35 | 5.01 to 35 | – | –
CC[C@@H]1C[C@H](C)CC/C=C\[C@@H]2C[C@@]2(C(=O)NS(=O)(=O)C2CC2)NC(=O)[C@@H]2C[C@@H](Oc3ccc(-c4nccs4)cn3)CN2C(=O)[C@H]1NC(=O)OC(C)(C)C(F)(F)F [Compound 1063, 1,1,1-trifluoro-2-methylpropan-2-yl ((2R,6S,7R,9R,13aS,14aR,16aS,Z)-14a-((cyclopropylsulfonyl)carbamoyl)-7-ethyl-9-methyl-5,16-dioxo-2-((5-(thiazol-2-yl)pyridin-2-yl)oxy)-1,2,3,5,6,7,8,9,10,11,13a,14,14a,15,16,16a-hexadecahydrocyclopropa[e]pyrrolo[1,2-a][1,4]diazacyclopentadecin-6-yl)carbamate] | 5.01 to 35 | 1.01 to 5 | 16.7 | 3.51
CC(C)Oc1ccc(-c2cc(Cl)cc(O[C@@H]3C[C@H]4C(=O)N[C@]5(C(=O)NS(=O)(=O)C6(C)CC6)C[C@H]5/C=C\CC[C@@H](C)C[C@@H](C)[C@H](NC(=O)OC(C)(C)C(F)(F)F)C(=O)N4C3)n2)cc1 [Compound 1027, 1,1,1-trifluoro-2-methylpropan-2-yl ((2R,6S,7R,9R,13aS,14aR,16aS,Z)-2-((4-chloro-6-(4-isopropoxyphenyl)pyridin-2-yl)oxy)-7,9-dimethyl-14a-(((1-methylcyclopropyl)sulfonyl)carbamoyl)-5,16-dioxo-1,2,3,5,6,7,8,9,10,11,13a,14,14a,15,16,16a-hexadecahydrocyclopropa[e]pyrrolo[1,2-a][1,4]diazacyclopentadecin-6-yl)carbamate] | 1.01 to 5 | 1.01 to 5 | – | –
C[C@@H]1CC/C=C\[C@@H]2C[C@@]2(C(=O)NS(=O)(=O)C2(C)CC2)NC(=O)[C@@H]2C[C@@H](Oc3cc(-c4nccs4)ccn3)CN2C(=O)[C@@H](NC(=O)OC(C)(C)C(F)(F)F)[C@H](C)C1 [Compound 1031, 1,1,1-trifluoro-2-methylpropan-2-yl ((2R,6S,7R,9R,13aS,14aR,16aS,Z)-7,9-dimethyl-14a-(((1-methylcyclopropyl)sulfonyl)carbamoyl)-5,16-dioxo-2-((4-(thiazol-2-yl)pyridin-2-yl)oxy)-1,2,3,5,6,7,8,9,10,11,13a,14,14a,15,16,16a-hexadecahydrocyclopropa[e]pyrrolo[1,2-a][1,4]diazacyclopentadecin-6-yl)carbamate] | 1.01 to 5 | 0.51 to 1 | – | –
C[C@@H]1CC/C=C\[C@@H]2C[C@@]2(C(=O)NS(=O)(=O)C2(C)CC2)NC(=O)[C@@H]2C[C@@H](Oc3ncccc3C(F)(F)F)CN2C(=O)[C@@H](NC(=O)OC(C)(C)C(F)(F)F)[C@H](C)C1 [Compound 1066, 1,1,1-trifluoro-2-methylpropan-2-yl ((2R,6S,7R,9R,13aS,14aR,16aS,Z)-7,9-dimethyl-14a-(((1-methylcyclopropyl)sulfonyl)carbamoyl)-5,16-dioxo-2-((3-(trifluoromethyl)pyridin-2-yl)oxy)-1,2,3,5,6,7,8,9,10,11,13a,14,14a,15,16,16a-hexadecahydrocyclopropa[e]pyrrolo[1,2-a][1,4]diazacyclopentadecin-6-yl)carbamate] | – | 0.51 to 1 | – | –
C[C@@H]1CC/C=C\[C@@H]2C[C@@]2(C(=O)NS(=O)(=O)C2(C)CC2)NC(=O)[C@@H]2C[C@@H](Oc3ncccc3Cl)CN2C(=O)[C@@H](NC(=O)OC(C)(C)C(F)(F)F)[C@H](C)C1 [Compound 1069, 1,1,1-trifluoro-2-methylpropan-2-yl ((2R,6S,7R,9R,13aS,14aR,16aS,Z)-2-((3-chloropyridin-2-yl)oxy)-7,9-dimethyl-14a-(((1-methylcyclopropyl)sulfonyl)carbamoyl)-5,16-dioxo-1,2,3,5,6,7,8,9,10,11,13a,14,14a,15,16,16a-hexadecahydrocyclopropa[e]pyrrolo[1,2-a][1,4]diazacyclopentadecin-6-yl)carbamate] | – | 0.1 to 0.5 | – | –
COc1cccc(O[C@@H]2C[C@H]3C(=O)N[C@]4(C(=O)NS(=O)(=O)C5(C)CC5)C[C@H]4/C=C\CC[C@@H](C)C[C@@H](C)[C@H](NC(=O)OC(C)(C)C(F)(F)F)C(=O)N3C2)n1 [Compound 1068, 1,1,1-trifluoro-2-methylpropan-2-yl ((2R,6S,7R,9R,13aS,14aR,16aS,Z)-2-((6-methoxypyridin-2-yl)oxy)-7,9-dimethyl-14a-(((1-methylcyclopropyl)sulfonyl)carbamoyl)-5,16-dioxo-1,2,3,5,6,7,8,9,10,11,13a,14,14a,15,16,16a-hexadecahydrocyclopropa[e]pyrrolo[1,2-a][1,4]diazacyclopentadecin-6-yl)carbamate] | – | 1.01 to 5 | – | –
C[C@@H]1CC/C=C\[C@@H]2C[C@@]2(C(=O)NS(=O)(=O)C2(C)CC2)NC(=O)[C@@H]2C[C@@H](Oc3ncccc3C(F)(F)F)CN2C(=O)[C@@H](NC(=O)OC(C)(C)C)[C@H](C)C1 [Compound 1065, tert-butyl ((2R,6S,7R,9R,13aS,14aR,16aS,Z)-7,9-dimethyl-14a-(((1-methylcyclopropyl)sulfonyl)carbamoyl)-5,16-dioxo-2-((3-(trifluoromethyl)pyridin-2-yl)oxy)-1,2,3,5,6,7,8,9,10,11,13a,14,14a,15,16,16a-hexadecahydrocyclopropa[e]pyrrolo[1,2-a][1,4]diazacyclopentadecin-6-yl)carbamate] | – | 1.01 to 5 | – | –
C[C@@H]1CC/C=C\[C@@H]2C[C@@]2(C(=O)NS(=O)(=O)C2(C)CC2)NC(=O)[C@@H]2C[C@@H](Oc3nccc(Cl)c3C(F)(F)F)CN2C(=O)[C@@H](NC(=O)OC(C)(C)C(F)(F)F)[C@H](C)C1 [Compound 1067, 1,1,1-trifluoro-2-methylpropan-2-yl ((2R,6S,7R,9R,13aS,14aR,16aS,Z)-2-((4-chloro-3-(trifluoromethyl)pyridin-2-yl)oxy)-7,9-dimethyl-14a-(((1-methylcyclopropyl)sulfonyl)carbamoyl)-5,16-dioxo-1,2,3,5,6,7,8,9,10,11,13a,14,14a,15,16,16a-hexadecahydrocyclopropa[e]pyrrolo[1,2-a][1,4]diazacyclopentadecin-6-yl)carbamate] | – | 0.1 to 0.5 | – | –

Reference: patent publication US9334279B2, “Hepatitis C virus inhibitors” (BRISTOL-MYERS SQUIBB COMPANY, priority 2012, dated 2016)
